Experimental data taken from patent publication US20140243334A1, “SUBSTITUTED HYDOXAMIC ACIDS AND USES THEREOF” (Millennium Pharmaceuticals, Inc., priority 2010, published 2014).

Molecular target: T1, purified human HDAC6 (Homo sapiens, UniProt Q9UBN7)
T1 construct: purchased BPS Bioscience 5006
T1 sequence (Q9UBN7 1-1215): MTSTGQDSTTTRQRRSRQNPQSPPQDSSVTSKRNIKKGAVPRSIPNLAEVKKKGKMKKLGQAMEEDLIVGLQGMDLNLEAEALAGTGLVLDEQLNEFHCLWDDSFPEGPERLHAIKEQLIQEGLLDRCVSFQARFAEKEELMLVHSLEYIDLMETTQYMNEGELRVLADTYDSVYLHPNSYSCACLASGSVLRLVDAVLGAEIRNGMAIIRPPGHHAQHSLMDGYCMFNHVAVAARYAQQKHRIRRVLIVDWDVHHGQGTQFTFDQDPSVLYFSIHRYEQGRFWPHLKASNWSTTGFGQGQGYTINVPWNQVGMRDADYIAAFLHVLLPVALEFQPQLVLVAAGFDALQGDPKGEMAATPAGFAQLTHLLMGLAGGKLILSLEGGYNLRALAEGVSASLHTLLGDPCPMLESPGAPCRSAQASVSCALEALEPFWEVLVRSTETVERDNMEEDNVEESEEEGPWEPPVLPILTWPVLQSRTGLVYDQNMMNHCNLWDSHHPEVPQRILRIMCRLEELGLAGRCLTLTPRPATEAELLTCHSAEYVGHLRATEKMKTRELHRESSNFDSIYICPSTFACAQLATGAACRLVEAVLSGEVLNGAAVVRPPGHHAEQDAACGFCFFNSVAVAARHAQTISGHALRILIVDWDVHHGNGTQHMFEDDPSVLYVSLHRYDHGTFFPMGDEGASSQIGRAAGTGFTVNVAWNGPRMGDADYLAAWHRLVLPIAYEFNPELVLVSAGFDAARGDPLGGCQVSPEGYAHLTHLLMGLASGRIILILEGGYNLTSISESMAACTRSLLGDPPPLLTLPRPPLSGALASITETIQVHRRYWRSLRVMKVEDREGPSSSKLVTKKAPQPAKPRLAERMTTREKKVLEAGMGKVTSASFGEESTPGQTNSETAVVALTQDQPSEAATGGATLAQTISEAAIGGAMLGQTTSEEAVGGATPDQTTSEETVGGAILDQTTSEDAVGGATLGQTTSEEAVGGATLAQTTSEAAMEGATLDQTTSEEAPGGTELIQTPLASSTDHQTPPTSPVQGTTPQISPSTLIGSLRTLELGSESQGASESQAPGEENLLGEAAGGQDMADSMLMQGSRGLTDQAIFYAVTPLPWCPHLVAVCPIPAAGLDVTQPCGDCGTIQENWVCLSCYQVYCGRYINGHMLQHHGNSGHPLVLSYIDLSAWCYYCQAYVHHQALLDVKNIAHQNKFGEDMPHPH
Test: HDAC6 Enzyme Assay
Type: biochemical
Conditions: HDAC6 inhibition at a compound concentration of 0.412 μM; read-out: Percent Inhibition at 0.412 μM
Method: To measure the inhibition of HDAC6 activity, purified human HDAC6 (BPS Bioscience; Cat. No. 5006) is incubated with substrate Ac-Arg-Gly-Lys(Ac)-AMC peptide (Bachem Biosciences; Cat. No. I-1925) for 1 hour at 30° C. in the presence of test compounds or vehicle DMSO control. The reaction is stopped with the HDAC inhibitor trichostatin A (Sigma; Cat. No. T8552) and the amount of Arg-Gly-Lys-AMC generated is quantitated by digestion with trypsin (Sigma; Cat. No. T1426) and subsequent measurement of the amount of AMC released using a fluorescent plate reader (Pherastar; BMG Technologies) set at Ex 340 nm and Em 460 nm. Concentration response curves are generated by calculating the fluorescence increase in test compound-treated samples relative to DMSO-treated controls, and enzyme inhibition (IC50) values are determined from those curves.

inhibition at 0.412 µM [%] | SMILES
72 | O=C(NO)C1CCc2ccc(-c3ccoc3)cc2C1 (stereo not drawn) [Compound I-103, 7-(3-furyl)-N-hydroxy-1,2,3,4-tetrahydronaphthalene-2-carboxamide]
74 | O=C(NO)C1CCc2ccc(-c3ccc(Cl)cc3)cc2C1 (stereo not drawn) [Compound I-71, 7-(4-chlorophenyl)-N-hydroxy-1,2,3,4-tetrahydronaphthalene-2-carboxamide]
77 | O=C(NO)C1CCc2ccc(-c3ccc(C(=O)N4CCCC4)c(F)c3)cc2C1 (stereo not drawn) [Compound I-118, 7-[3-fluoro-4-(pyrrolidin-1-ylcarbonyl)phenyl]-N-hydroxy-1,2,3,4-tetrahydronaphthalene-2-carboxamide]
86 | CCOc1cccc(-c2ccc3c(c2)CC(C(=O)NO)CC3)c1 (stereo not drawn) [Compound I-107, 7-(3-ethoxyphenyl)-N-hydroxy-1,2,3,4-tetrahydronaphthalene-2-carboxamide]
58 | O=C(NO)C1CCc2ccc(OCc3ccncc3)cc2C1 (stereo not drawn) [Compound I-5, N-hydroxy-7-(pyridin-4-ylmethoxy)-1,2,3,4-tetrahydronaphthalene-2-carboxamide]
16 | CC1(C(=O)NO)CCc2ccc(Oc3ccc(Cl)cc3)cc2C1 (stereo not drawn) [Compound I-124, 7-(4-Chlorophenoxy)-N-hydroxy-2-methyl-1,2,3,4-tetrahydronaphthalene-2-carboxamide]
46 | CN(C)c1ccc2c(c1)CC(C(=O)NO)CC2 (stereo not drawn) [Compound I-40, 7-(dimethylamino)-N-hydroxy-1,2,3,4-tetrahydronaphthalene-2-carboxamide]
55 | CN(C)Cc1cc(C(=O)Nc2ccc3c(c2)CC(C(=O)NO)CC3)cc(C(F)(F)F)c1 (stereo not drawn) [Compound I-37, 7-{[3-[(dimethylamino)methyl]-5-(trifluoromethyl)benzoyl]amino}-N-hydroxy-1,2,3,4-tetrahydronaphthalene-2-carboxamide]
77 | O=C(NO)C1CCc2ccc(-c3ccc4nonc4c3)cc2C1 (stereo not drawn) [Compound I-91, 7-(2,1,3-benzoxadiazol-5-yl)-N-hydroxy-1,2,3,4-tetrahydronaphthalene-2-carboxamide]
76 | O=C(NO)C1CCc2ccc(Oc3cccc(NCc4ccccc4)c3)cc2C1 (stereo not drawn) [Compound I-59, 7-[3-(benzylamino)phenoxy]-N-hydroxy-1,2,3,4-tetrahydronaphthalene-2-carboxamide]
67 | O=C1CCc2c(Oc3ccc4c(c3)CCC(C(=O)NO)C4)ccnc2N1 (stereo not drawn) [Compound I-14, N-hydroxy-6-[(7-oxo-5,6,7,8-tetrahydro-1,8-naphthyridin-4-yl)oxy]-1,2,3,4-tetrahydronaphthalene-2-carboxamide]
61 | O=C(NO)C1CCc2ccc(-c3ccc(S(=O)(=O)N4CCCCC4)cc3)cc2C1 (stereo not drawn) [Compound I-123, N-hydroxy-7-[4-(piperidin-1-ylsulfonyl)phenyl]-1,2,3,4-tetrahydronaphthalene-2-carboxamide]
87 | CN(C)CCOc1cccc(-c2ccc3c(c2)CC(C(=O)NO)CC3)c1 (stereo not drawn) [Compound I-58, 7-{3-[2-(dimethylamino)ethoxy]phenyl}-N-hydroxy-1,2,3,4-tetrahydronaphthalene-2-carboxamide]
58 | O=C(NO)C1CCc2ccc(-c3ccc(C(F)(F)F)cc3)cc2C1 (stereo not drawn) [Compound I-112, N-hydroxy-7-[4-(trifluoromethyl)phenyl]-1,2,3,4-tetrahydronaphthalene-2-carboxamide]
86 | O=C(Nc1ccccc1)Nc1ccc2c(c1)CC(C(=O)NO)CC2 (stereo not drawn) [Compound I-30, 7-[(Anilinocarbonyl)amino]-N-hydroxy-1,2,3,4-tetrahydronaphthalene-2-carboxamide]
83 | CC(C)(C)OC(=O)Nc1cccc(Oc2ccc3c(c2)CC(C(=O)NO)CC3)c1 (stereo not drawn) [Compound I-53, tert-Butyl [3-({7-[(hydroxyamino)carbonyl]-5,6,7,8-tetrahydronaphthalen-2-yl}oxy)phenyl]carbamate]
34 | CN(C)CCOc1ccc2c(c1)CC(C(=O)NO)CC2 (stereo not drawn) [Compound I-44, 7-[2-(dimethylamino)ethoxy]-N-hydroxy-1,2,3,4-tetrahydronaphthalene-2-carboxamide]
33 | O=C(NO)C1CCc2ccccc2C1 (stereo not drawn) [Compound I-3, N-hydroxy-1,2,3,4-tetrahydronaphthalene-2-carboxamide]
82 | COc1ccc(-c2ccc3c(c2)CC(C(=O)NO)CC3)cc1OC (stereo not drawn) [Compound I-109, 7-(3,4-dimethoxyphenyl)-N-hydroxy-1,2,3,4-tetrahydronaphthalene-2-carboxamide]
77 | O=C(NO)C1CCc2ccc(-c3ccc4[nH]ccc4c3)cc2C1 (stereo not drawn) [Compound I-75, N-hydroxy-7-(1H-indol-5-yl)-1,2,3,4-tetrahydronaphthalene-2-carboxamide]
74 | O=C(NO)C1CCc2cc(Oc3ccnc(NC(=O)C4CC4)c3)ccc2C1 (stereo not drawn) [Compound I-13, 6-({2-[(cyclopropylcarbonyl)amino]pyridin-4-yl}oxy)-N-hydroxy-1,2,3,4-tetrahydronaphthalene-2-carboxamide]
81 | O=C(NO)C1CCc2ccc(-c3ccc(N4CCCC4)nc3)cc2C1 (stereo not drawn) [Compound I-97, N-hydroxy-7-(6-pyrrolidin-1-ylpyridin-3-yl)-1,2,3,4-tetrahydronaphthalene-2-carboxamide]
86 | CC(=O)Nc1cccc(-c2ccc3c(c2)CC(C(=O)NO)CC3)c1 (stereo not drawn) [Compound I-24, 7-[3-(acetylamino)phenyl]-N-hydroxy-1,2,3,4-tetrahydronaphthalene-2-carboxamide]
91 | O=C(NO)C1CCc2cc(F)c(Oc3ccnc(NC(=O)C4CC4)c3)cc2C1 (stereo not drawn) [Compound I-32, 7-({2-[(cyclopropylcarbonyl)amino]pyridin-4-yl}oxy)-6-fluoro-N-hydroxy-1,2,3,4-tetrahydronaphthalene-2-carboxamide]
66 | CC(C)Oc1ccc(-c2ccc3c(c2)CC(C(=O)NO)CC3)cc1 (stereo not drawn) [Compound I-89, N-hydroxy-7-(4-isopropoxyphenyl)-1,2,3,4-tetrahydronaphthalene-2-carboxamide]
57 | O=C(NO)C1CCc2ccc(NCc3cccnc3)cc2C1 (stereo not drawn) [Compound I-38, N-hydroxy-7-[(pyridin-3-ylmethyl)amino]-1,2,3,4-tetrahydronaphthalene-2-carboxamide]
54 | O=C(NO)C1CCc2ccc(-c3ccc(OCc4ccccc4)cc3)cc2C1 (stereo not drawn) [Compound I-121, 7-[4-(benzyloxy)phenyl]-N-hydroxy-1,2,3,4-tetrahydronaphthalene-2-carboxamide]
74 | O=C(NO)C1CCc2ccc(-c3ccc(S(=O)(=O)N4CCOCC4)cc3)cc2C1 (stereo not drawn) [Compound I-117, N-hydroxy-7-[4-(morpholin-4-ylsulfonyl)phenyl]-1,2,3,4-tetrahydronaphthalene-2-carboxamide]
75 | O=C(NO)C1CCc2ccc(-c3cccnc3)cc2C1 (stereo not drawn) [Compound I-60, N-hydroxy-7-pyridin-3-yl-1,2,3,4-tetrahydronaphthalene-2-carboxamide]

SMILES | inhibition at 0.412 µM [%]
CC(C)COc1ccc2c(c1)CC(C(=O)NO)CC2 (stereo not drawn) [Compound I-7, N-hydroxy-7-isobutoxy-1,2,3,4-tetrahydronaphthalene-2-carboxamide] | 57
